Patent US20200038513A1, “MODULATORS OF FAK PROTEOLYSIS AND ASSOCIATED METHODS OF USE” (ARVINAS OPERATIONS, INC., priority 2018, published 2020)
Like-named read-outs stand apart in the source and are kept apart here.

Assays:
[1] = Pharmacokinetics of intraperitoneal or intravenous injection in CD1 mice; format: in vivo; conditions: for Conc. (ng/mL) Mouse 2 / Conc. (ng/mL) Mouse 1 / Conc. (ng/mL) Mouse 3 / concentration at 0.25 h / concentration at 0.5 h / concentration at 1 h / concentration at 2 h / concentration at 4 h / concentration at 8 h / concentration at 24 h / concentration at 0.033 h / concentration at 0.083 h: CD1 mice plasma; for concentration at 0.25 h / concentration at 0.5 h / concentration at 1 h / concentration at 2 h / concentration at 4 h / concentration at 8 h / concentration at 24 h / AUC(0-t) / half-life / concentration at 0.033 h / concentration at 0.083 h: male, CD1, mouse, plasma
Method in brief: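 Male CD1 mice, 6-8 weeks old, 3 per group, dosed IV (5 s injection; 10% HP-b-CD, 40 mM sodium acetate, 40 mM NaCl, pH 4.5) or IP (5% EtOH, 5% Solutol HS15 in D5W). Serial dorsal metatarsal vein blood, terminal heart puncture; plasma analysed by LC/MS/MS after acetonitrile precipitation, calibration 1-2000 ng/mL.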

PPB = format: in vitro ADME; conditions: plasma
[2] = ip, 10 mg/kg, IP 10 mg/kg, read-out: Conc. (ng/mL) Mouse 1
[3] = ip, 10 mg/kg, IP 10 mg/kg, read-out: Conc. (ng/mL) Mouse 2
[4] = ip, 10 mg/kg, IP 10 mg/kg, read-out: Conc. (ng/mL) Mouse 3
[5] = ip, 10 mg/kg, IP 10 mg/kg, read-out: Mean
[6] = iv, 1 mg/kg, IV 1.0 mg/kg, read-out: Conc. (ng/mL) Mouse 1
[7] = iv, 1 mg/kg, IV 1.0 mg/kg, read-out: Conc. (ng/mL) Mouse 2
[8] = iv, 1 mg/kg, IV 1.0 mg/kg, read-out: Conc. (ng/mL) Mouse 3
[9] = iv, 1 mg/kg, IV 1.0 mg/kg, read-out: Mean

- Conc. (ng/mL) Mouse 2 ([1]; IP 10 mg/kg, 24 h): BLOQ
- Conc. (ng/mL) Mouse 1 ([1]; IV 1.0 mg/kg, 8 h): BLOQ
- Conc. (ng/mL) Mouse 2 ([1]; IV 1.0 mg/kg, 8 h): BLOQ
- Conc. (ng/mL) Mouse 3 ([1]; IV 1.0 mg/kg, 8 h): BLOQ
- Conc. (ng/mL) Mouse 1 ([1]; IV 1.0 mg/kg, 24 h): BLOQ
- Conc. (ng/mL) Mouse 2 ([1]; IV 1.0 mg/kg, 24 h): BLOQ
- Conc. (ng/mL) Mouse 3 ([1]; IV 1.0 mg/kg, 24 h): BLOQ
- concentration at 0.25 h [1, 2]: 252 ng/mL
- concentration at 0.25 h [1, 3]: 402 ng/mL
- concentration at 0.25 h [1, 4]: 374 ng/mL
- concentration at 0.25 h [1, 5]: 343 ng/mL
- concentration at 0.5 h [1, 2]: 362 ng/mL
- concentration at 0.5 h [1, 3]: 467 ng/mL
- concentration at 0.5 h [1, 4]: 373 ng/mL
- concentration at 0.5 h [1, 5]: 401 ng/mL
- concentration at 1 h [1, 2]: 648 ng/mL
- concentration at 1 h [1, 3]: 1550 ng/mL
- concentration at 1 h [1, 4]: 2480 ng/mL
- concentration at 1 h [1, 5]: 1560 ng/mL
- concentration at 2 h [1, 2]: 764 ng/mL
- concentration at 2 h [1, 3]: 1750 ng/mL
- concentration at 2 h [1, 4]: 1610 ng/mL
- concentration at 2 h [1, 5]: 1380 ng/mL
- concentration at 4 h [1, 2]: 362 ng/mL
- concentration at 4 h [1, 3]: 625 ng/mL
- concentration at 4 h [1, 4]: 510 ng/mL
- concentration at 4 h [1, 5]: 499 ng/mL
- concentration at 8 h ([1]; ip, 10 mg/kg, IP 10 mg/kg, 8 h, read-out: Conc. (ng/mL) Mouse 1): 95.4 ng/mL
- concentration at 8 h ([1]; ip, 10 mg/kg, IP 10 mg/kg, 8 h, read-out: Conc. (ng/mL) Mouse 2): 111 ng/mL
- concentration at 8 h ([1]; ip, 10 mg/kg, IP 10 mg/kg, 8 h, read-out: Conc. (ng/mL) Mouse 3): 151 ng/mL
- concentration at 8 h ([1]; ip, 10 mg/kg, IP 10 mg/kg, 8 h, read-out: Mean): 119 ng/mL
- concentration at 24 h ([1]; ip, 10 mg/kg, IP 10 mg/kg, 24 h, read-out: Conc. (ng/mL) Mouse 1): 1.35 ng/mL
- concentration at 24 h ([1]; ip, 10 mg/kg, IP 10 mg/kg, 24 h, read-out: Conc. (ng/mL) Mouse 3): 1.56 ng/mL
- concentration at 24 h ([1]; ip, 10 mg/kg, IP 10 mg/kg, 24 h, read-out: Mean): 1.46 ng/mL
- AUC(0-t) ([1]; ip, 10 mg/kg, read-out: AUClast (h * ng/mL) IP): 5870 ng·h/mL
- half-life ([1]; ip, 10 mg/kg, read-out: T ½ (h) IP (converted)): 2.15 h
- concentration at 0.033 h [1, 6]: 1320 ng/mL
- concentration at 0.033 h [1, 7]: 1390 ng/mL
- concentration at 0.033 h [1, 8]: 1150 ng/mL
- concentration at 0.033 h [1, 9]: 1290 ng/mL
- concentration at 0.083 h [1, 6]: 233 ng/mL
- concentration at 0.083 h [1, 7]: 313 ng/mL
- concentration at 0.083 h [1, 8]: 205 ng/mL
- concentration at 0.083 h [1, 9]: 250 ng/mL
- concentration at 0.25 h [1, 6]: 34.7 ng/mL
- concentration at 0.25 h [1, 7]: 48.2 ng/mL
- concentration at 0.25 h [1, 8]: 36.4 ng/mL
- concentration at 0.25 h [1, 9]: 39.8 ng/mL
- concentration at 0.5 h [1, 6]: 17.4 ng/mL
- concentration at 0.5 h [1, 7]: 27.1 ng/mL
- concentration at 0.5 h [1, 8]: 18 ng/mL
- concentration at 0.5 h [1, 9]: 20.8 ng/mL
- concentration at 1 h [1, 6]: 6.22 ng/mL
- concentration at 1 h [1, 7]: 9.77 ng/mL
- concentration at 1 h [1, 8]: 8.79 ng/mL
- concentration at 1 h [1, 9]: 8.26 ng/mL
- concentration at 2 h [1, 6]: 3.27 ng/mL
- concentration at 2 h [1, 7]: 5.86 ng/mL
- concentration at 2 h [1, 8]: 3.98 ng/mL
- concentration at 2 h [1, 9]: 4.37 ng/mL
- concentration at 4 h [1, 6]: 1.84 ng/mL
- concentration at 4 h [1, 7]: 4.11 ng/mL
- concentration at 4 h [1, 8]: 2.13 ng/mL
- concentration at 4 h [1, 9]: 2.69 ng/mL
- AUC(0-t) ([1]; iv, 1 mg/kg, read-out: AUClast (h * ng/mL) IV): 175 ng·h/mL
- half-life ([1]; iv, 1 mg/kg, read-out: T ½ (h) IV (converted)): 1.95 h
- fraction unbound (PPB): 0.008
SMILES: Cc1ncsc1-c1ccc(CNC(=O)[C@@H]2C[C@@H](O)CN2C(=O)[C@@H](NC(=O)COCCOc2ccc(Nc3ncc(C(F)(F)F)c(NCc4cccc(N(C)S(C)(=O)=O)c4)n3)cc2)C(C)(C)C)cc1 [Compound 100, (2S,4R)-1-((S)-3,3-dimethyl-2-(2-(2-(4-((4-((3-(N-methylmethylsulfonamido)benzyl)amino)-5-(trifluoromethyl)pyrimidin-2-yl)amino)phenoxy)ethoxy)acetamido)butanoyl)-4-hydroxy-N-(4-(4-methylthiazol-5-yl)benzyl)pyrrolidine-2-carboxamide]
